Laboratory results: ChEMBL document CHEMBL5665443, “Enzyme Inhibitor Single Concentration assay results for EUbOPEN Chemogenomics Library” (2024)

Assays:
[1] = molecular target: T1, Endonuclease III-like protein 1 (Homo sapiens) (UniProt P78549); conditions: Hit No;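 also: enzyme assay tracking NTHL1 cutting and release of a quenched double-stranded DNA oligo substrate, read as fluorescence at 594 nm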
T1 sequence (whole entry): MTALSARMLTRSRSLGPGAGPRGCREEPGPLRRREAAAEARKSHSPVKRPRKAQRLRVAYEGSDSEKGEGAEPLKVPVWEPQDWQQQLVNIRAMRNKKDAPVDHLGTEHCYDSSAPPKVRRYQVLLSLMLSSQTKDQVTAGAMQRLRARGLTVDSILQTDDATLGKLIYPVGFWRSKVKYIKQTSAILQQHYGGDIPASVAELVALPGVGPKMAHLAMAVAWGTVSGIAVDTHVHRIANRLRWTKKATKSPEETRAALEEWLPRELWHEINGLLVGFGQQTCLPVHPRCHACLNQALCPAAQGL
Description: Inhibition of NTHL1 by quantifying inhibition of NTHL1-mediated cleavage and dissociation of quenched duplex DNA oligonucleotides, measured as fluorescence at 594 nm.

[2] = molecular target: Methyl-CpG-binding domain protein 4 (Homo sapiens) (UniProt O95243); conditions: Hit No;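 also: MBD4 activity read as fluorescence at 594 nm from cleavage and release of a quenched duplex DNA oligonucleotide, with APE1 coupled to incise the strand and raise turnover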
Description: Inhibition of MBD4 by quantifying inhibition of MBD4-mediated cleavage and dissociation of quenched duplex DNA oligonucleotides, measured as fluorescence at 594 nm. To generate a functional strand incision and increase turn-over this assay is coupled to APE1.

[3] = molecular target: N-glycosylase/DNA lyase (Homo sapiens) (UniProt O15527);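 also: OGG1 cleavage of a quenched duplex DNA oligonucleotide, coupled to APE1 for strand incision, read as fluorescence at 594 nm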
Description: Inhibition of OGG1 by quantifying inhibition of OGG1-mediated cleavage and dissociation of quenched duplex DNA oligonucleotides, measured as fluorescence at 594 nm. To generate a functional strand incision and increase turn-over this assay is coupled to APE1.

[4] = molecular target: Uracil-DNA glycosylase (Homo sapiens) (UniProt P13051); conditions: Hit No;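 also: UNG excision on a quenched double-stranded DNA oligo probe, with APE1 added for strand incision and turnover, read as fluorescence at 594 nm as strands separate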
Description: Inhibition of UNG by quantifying inhibition of UNG-mediated cleavage and dissociation of quenched duplex DNA oligonucleotides, measured as fluorescence at 594 nm. To generate a functional strand incision and increase turn-over this assay is coupled to APE1.

[5] = molecular target: Endonuclease 8-like 1 (Homo sapiens) (UniProt Q96FI4); conditions: Hit No;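 also: fluorescence at 594 nm from quenched duplex DNA oligonucleotides released by NEIL1 cleavage and strand separation, reported as reduction of this enzyme activity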
Description: Inhibition of NEIL1 by quantifying inhibition of NEIL1-mediated cleavage and dissociation of quenched duplex DNA oligonucleotides, measured as fluorescence at 594 nm.

[6] = molecular target: G/T mismatch-specific thymine DNA glycosylase (Homo sapiens) (UniProt Q13569); conditions: Hit No;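 also: human TDG cleavage of quenched duplex DNA oligonucleotides coupled to APE1, strand release read as fluorescence at 594 nm, inhibition of TDG activity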
Description: Inhibition of TDG by quantifying inhibition of TDG-mediated cleavage and dissociation of quenched duplex DNA oligonucleotides, measured as fluorescence at 594 nm. To generate a functional strand incision and increase turn-over this assay is coupled to APE1.

[7] = molecular target: T2, Single-strand selective monofunctional uracil DNA glycosylase (Homo sapiens) (UniProt Q53HV7); conditions: Hit No;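 also: enzymatic SMUG1 assay coupled with APE1, reading fluorescence at 594 nm released when a quenched double-stranded DNA oligonucleotide substrate is cleaved and separated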
T2 sequence (whole entry): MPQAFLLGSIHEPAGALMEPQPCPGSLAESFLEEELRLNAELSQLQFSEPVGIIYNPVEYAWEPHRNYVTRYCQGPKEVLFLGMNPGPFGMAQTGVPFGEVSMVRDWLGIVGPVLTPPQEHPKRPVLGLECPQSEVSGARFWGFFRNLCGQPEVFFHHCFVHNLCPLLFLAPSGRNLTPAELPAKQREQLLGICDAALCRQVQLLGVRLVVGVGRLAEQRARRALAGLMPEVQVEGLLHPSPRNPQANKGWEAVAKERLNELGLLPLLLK
Description: Inhibition of SMUG1 by quantifying inhibition of SMUG1-mediated cleavage and dissociation of quenched duplex DNA oligonucleotides, measured as fluorescence at 594 nm. To generate a functional strand incision and increase turn-over this assay is coupled to APE1.

[8] = molecular target: T3, Endonuclease 8-like 2 (Homo sapiens) (UniProt Q969S2); conditions: Hit No;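 also: fluorescence at 594 nm reports NEIL2 cutting and release of a quenched double-stranded DNA oligo substrate, reduced signal read as inhibition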
T3 sequence (whole entry): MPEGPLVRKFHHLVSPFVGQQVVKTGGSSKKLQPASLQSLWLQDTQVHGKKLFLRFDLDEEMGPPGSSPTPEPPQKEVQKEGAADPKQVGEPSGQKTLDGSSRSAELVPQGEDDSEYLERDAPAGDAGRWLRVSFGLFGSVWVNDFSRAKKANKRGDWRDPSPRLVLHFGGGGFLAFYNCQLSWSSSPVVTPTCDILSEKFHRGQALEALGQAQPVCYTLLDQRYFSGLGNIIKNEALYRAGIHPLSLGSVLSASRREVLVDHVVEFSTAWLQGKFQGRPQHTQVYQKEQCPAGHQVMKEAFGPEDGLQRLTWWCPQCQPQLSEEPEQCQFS
Description: Inhibition of NEIL2 by quantifying inhibition of NEIL2-mediated cleavage and dissociation of quenched duplex DNA oligonucleotides, measured as fluorescence at 594 nm.

[9] = Compound Concentration 10.0 uM, Hit No
[10] = Compound Concentration 1.0 uM, Hit No

Sequence of Uracil-DNA glycosylase (Homo sapiens) (P13051 whole entry): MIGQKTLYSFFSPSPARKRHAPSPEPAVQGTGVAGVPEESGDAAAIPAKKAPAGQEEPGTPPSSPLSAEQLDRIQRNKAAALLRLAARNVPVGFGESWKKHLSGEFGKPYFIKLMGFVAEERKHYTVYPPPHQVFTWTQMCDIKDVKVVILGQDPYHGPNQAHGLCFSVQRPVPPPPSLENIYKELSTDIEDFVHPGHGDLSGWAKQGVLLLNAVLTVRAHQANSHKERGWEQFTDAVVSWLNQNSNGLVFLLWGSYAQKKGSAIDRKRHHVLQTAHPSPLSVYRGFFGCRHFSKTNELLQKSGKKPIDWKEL
Sequence of N-glycosylase/DNA lyase (Homo sapiens) (O15527 whole entry): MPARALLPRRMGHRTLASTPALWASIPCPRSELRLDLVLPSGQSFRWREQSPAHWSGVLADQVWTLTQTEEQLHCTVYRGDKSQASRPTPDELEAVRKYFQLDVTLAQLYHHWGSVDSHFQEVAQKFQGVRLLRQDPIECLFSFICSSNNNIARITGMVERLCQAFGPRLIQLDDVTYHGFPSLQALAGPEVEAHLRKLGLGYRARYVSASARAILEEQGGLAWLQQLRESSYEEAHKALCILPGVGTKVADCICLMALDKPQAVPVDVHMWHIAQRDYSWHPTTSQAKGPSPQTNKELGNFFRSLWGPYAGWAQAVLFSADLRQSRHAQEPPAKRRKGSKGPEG
Sequence of Methyl-CpG-binding domain protein 4 (Homo sapiens) (O95243 whole entry, the tested form may be a part): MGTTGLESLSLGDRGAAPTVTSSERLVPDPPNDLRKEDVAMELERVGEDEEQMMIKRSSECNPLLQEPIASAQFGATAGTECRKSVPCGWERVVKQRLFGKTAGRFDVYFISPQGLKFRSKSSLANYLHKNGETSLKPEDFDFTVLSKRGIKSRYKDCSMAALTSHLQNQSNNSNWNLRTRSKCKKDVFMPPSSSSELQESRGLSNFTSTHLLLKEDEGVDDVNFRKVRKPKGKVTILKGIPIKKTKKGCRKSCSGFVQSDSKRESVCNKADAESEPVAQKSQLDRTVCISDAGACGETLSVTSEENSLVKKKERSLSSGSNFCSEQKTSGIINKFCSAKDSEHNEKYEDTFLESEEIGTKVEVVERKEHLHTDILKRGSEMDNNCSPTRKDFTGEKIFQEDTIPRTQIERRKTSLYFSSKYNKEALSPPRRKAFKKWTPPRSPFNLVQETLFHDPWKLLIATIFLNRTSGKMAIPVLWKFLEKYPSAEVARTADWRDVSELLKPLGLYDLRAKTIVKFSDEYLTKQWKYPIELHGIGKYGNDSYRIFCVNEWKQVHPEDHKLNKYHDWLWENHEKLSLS
Sequence of G/T mismatch-specific thymine DNA glycosylase (Homo sapiens) (Q13569 whole entry): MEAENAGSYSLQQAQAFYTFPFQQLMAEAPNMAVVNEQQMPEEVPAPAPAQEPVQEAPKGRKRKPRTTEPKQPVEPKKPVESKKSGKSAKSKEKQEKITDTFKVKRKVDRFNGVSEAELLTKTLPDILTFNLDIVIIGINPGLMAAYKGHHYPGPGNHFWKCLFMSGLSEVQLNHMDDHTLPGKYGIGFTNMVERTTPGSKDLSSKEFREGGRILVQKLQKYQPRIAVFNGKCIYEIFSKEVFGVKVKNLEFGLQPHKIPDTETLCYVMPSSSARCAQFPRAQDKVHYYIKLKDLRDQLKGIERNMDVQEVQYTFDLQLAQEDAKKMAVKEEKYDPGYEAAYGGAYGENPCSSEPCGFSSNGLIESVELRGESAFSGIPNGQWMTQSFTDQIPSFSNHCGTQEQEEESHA
Sequence of Endonuclease 8-like 1 (Homo sapiens) (Q96FI4 whole entry): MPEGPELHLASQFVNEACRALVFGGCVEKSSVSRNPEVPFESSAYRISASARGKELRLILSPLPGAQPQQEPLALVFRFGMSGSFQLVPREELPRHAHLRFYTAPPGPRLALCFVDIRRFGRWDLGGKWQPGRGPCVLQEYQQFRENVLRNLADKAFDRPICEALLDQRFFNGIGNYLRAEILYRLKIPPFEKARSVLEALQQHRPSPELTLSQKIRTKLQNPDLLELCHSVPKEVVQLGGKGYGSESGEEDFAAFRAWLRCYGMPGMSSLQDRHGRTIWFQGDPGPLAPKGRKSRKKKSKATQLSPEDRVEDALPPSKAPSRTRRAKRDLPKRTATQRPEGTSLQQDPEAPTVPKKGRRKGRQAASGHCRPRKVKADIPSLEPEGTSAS

Row | Structure (SMILES) | inhibition ([1]; Compound Concentration 10.0 uM) [%] | inhibition ([2]; Compound Concentration 10.0 uM) [%] | inhibition [3, 9] [%] | inhibition ([4]; Compound Concentration 10.0 uM) [%] | inhibition ([5]; Compound Concentration 10.0 uM) [%] | inhibition ([6]; Compound Concentration 10.0 uM) [%] | inhibition ([7]; Compound Concentration 10.0 uM) [%] | inhibition ([8]; Compound Concentration 10.0 uM) [%] | inhibition ([1]; Compound Concentration 1.0 uM) [%] | inhibition ([2]; Compound Concentration 1.0 uM) [%] | inhibition [3, 10] [%] | inhibition ([4]; Compound Concentration 1.0 uM) [%] | inhibition ([5]; Compound Concentration 1.0 uM) [%] | inhibition ([6]; Compound Concentration 1.0 uM) [%] | inhibition ([7]; Compound Concentration 1.0 uM) [%] | inhibition ([8]; Compound Concentration 1.0 uM) [%] | inhibition ([3]; Compound Concentration 10.0 uM, Hit Yes) [%]
1 | COc1ccc(CC[C@@H](OC(=O)[C@H]2CCCCN2C(=O)[C@@H](c2cc(OC)c(OC)c(OC)c2)C2CCCCC2)c2cccc(OCCN3CCOCC3)c2)cc1OC | 0.685 | 63.9 | -1.2 | 9.57 | -4.53 | 97 | 19.6 | 4.61 |  |  |  |  |  |  |  |  | 
2 | O=C1NCN(c2ccccc2)C12CCN(CC1COc3ccccc3O1)CC2 (stereo not drawn) | 2.66 | -3.04 | -5.28 | -8.19 | -5.84 | 2.98 | 1.76 | -3.23 |  |  |  |  |  |  |  |  | 
3 | O=C(NCCCC1CCCCC1)c1ccc(CNC(=O)c2cnn(-c3ccccc3)c2C(F)(F)F)cc1 | -3.4 |  | 4.23 | 0.115 |  | 22.8 | 6.97 |  |  | 56.5 | 7.9 | -2.97 | -2.11 | 42.2 | 0.918 | -8.65 | 
4 | Nc1nc(NCc2ccccc2)nc(-c2cccc(CO)c2)n1 | -5.89 | 54 | -2.67 | -0.892 | -6.05 | 32.3 | 0.878 | -1.51 |  |  |  |  |  |  |  |  | 
5 | C=CC(=O)Nc1ccc2[nH]c(=O)n(C3CCN(Cc4ccc(-c5ccc6c(c5)NC(=O)CO6)cc4)CC3)c2c1 | -2.83 | 22.1 | 15.8 | 1.08 | 2.54 | 30.3 | 16.7 | -1.48 |  |  |  |  |  |  |  |  | 
6 | CCCCOCCOc1nc(-c2ccc(C(=O)O)c(F)c2)sc1C | -1.29 | 64.4 | 14.4 | 1.01 | 6.68 | 46.5 | 18.1 | 6.14 |  |  |  |  |  |  |  |  | 
7 | O=C(O)c1ccc2cc(-c3ccc(O)c(C45CC6CC(CC(C6)C4)C5)c3)ccc2c1 | -1.29 | 57.8 |  | 4.34 | -4.23 | 50.7 | 17.5 | -9.42 |  |  |  |  |  |  |  |  | 85.9
8 | C[C@H](NC(=O)c1cn(C2(C#N)CC2)cn1)C(=O)Nc1nc(-c2cccc(-c3ccn(C)n3)c2)cs1 |  |  |  |  |  |  |  |  | -7.2 | 59.5 | -5.28 | 1.27 | -5.74 | 51.4 | 3.85 | -9.67 | 

Second part, the molecule after the results:

Row | inhibition ([1]; Compound Concentration 10.0 uM) [%] | inhibition ([2]; Compound Concentration 10.0 uM) [%] | inhibition [3, 9] [%] | inhibition ([4]; Compound Concentration 10.0 uM) [%] | inhibition ([5]; Compound Concentration 10.0 uM) [%] | inhibition ([6]; Compound Concentration 10.0 uM) [%] | inhibition ([7]; Compound Concentration 10.0 uM) [%] | inhibition ([8]; Compound Concentration 10.0 uM) [%] | inhibition ([1]; Compound Concentration 1.0 uM) [%] | inhibition ([2]; Compound Concentration 1.0 uM) [%] | inhibition [3, 10] [%] | inhibition ([4]; Compound Concentration 1.0 uM) [%] | inhibition ([5]; Compound Concentration 1.0 uM) [%] | inhibition ([6]; Compound Concentration 1.0 uM) [%] | inhibition ([7]; Compound Concentration 1.0 uM) [%] | inhibition ([8]; Compound Concentration 1.0 uM) [%] | inhibition ([3]; Compound Concentration 10.0 uM, Hit Yes) [%] | Structure (SMILES)
9 | 7.79 | 5.84 | 0.771 | -5.14 | -4.5 | 16.4 | 1.61 | -1.48 |  |  |  |  |  |  |  |  |  | FC(F)(F)c1c(N2CCC(c3ccccc3)CC2)ccn2c(CC3CC3)nnc12
10 |  |  |  |  |  |  |  |  | -4.24 | 25 | 0.775 | -2.6 | -6.27 | 32.5 | 3.33 | -4.38 |  | CN1C(=O)[C@@H](N2CCc3c(nn(Cc4ccccc4)c3Br)C2=O)COc2ccccc21
11 |  |  |  |  |  |  |  |  | -3.26 | 65.4 | 1.9 | 0.673 | 1.98 | 50.9 | 14.3 | 4.36 |  | COc1cc(N[C@@H]2CCCC[C@]2(O)C(F)(F)F)ccc1F
12 | 3.31 | 63.2 | 64.5 | 2.04 | -2.56 | 63 | 4.9 | 10.5 |  |  |  |  |  |  |  |  |  | CCCc1c(OCCCOc2ccc(OCC(=O)O)cc2)ccc(C(C)=O)c1O
13 | -6.55 | 47.5 | 14.2 | -0.563 | -4.53 | 100 | 1.28 | 1.3 |  |  |  |  |  |  |  |  |  | CCn1c(CNC(=O)c2ncc(C)nc2N)[n+](CC)c2ccc(C(=O)N(C)CCN(C)C)cc21
